Test results taken from patent publication US11414378B2, “Anti-fungals compounds targeting the synthesis of fungal sphingolipids” (THE RESEARCH FOUNDATION FOR THE STATE UNIVERSITY OF NEW YORK, priority 2017, dated 2022).
Converted amounts (≈) assume the structure as drawn.

Assays:
HepG2 = HepG2 toxicity; format: cell-based; conditions: Tables 1-3
C. neoformans [1] = test: In vitro susceptibility testing (MIC / IC80); format: cell-based, Cryptococcus neoformans; conditions: for IC80: Cryptococcus neoformans, Tables 1-3; for MIC: Example 2 table
Procedure: Minimal inhibitory concentration (MIC) was determined following the methods of the Clinical Laboratory Standards Institutes (CLSI) with modifications. MIC studies used either RPMI or YNB medium (pH 7.0, 0.2% glucose) buffered with HEPES. […] The compound was serially diluted from 32 to 0.03 μg/ml or 19 to 0.02 μg/ml respectively in a 96 well plate with the respective medium. The yeast inoculum was prepared as described in the CLSI protocol M27-A3 guidelines. Plates were incubated at 37° C. and in the presence of 5% CO2 for 24-96 hours. Against all fungal isolates used in the initial susceptibility screen, the MICs were determined as the lowest concentration of the drug that inhibited 50% of growth compared to the control. MIC80 and MIC100, whose drug concentrations inhibited 80% and 100% growth compared to the control respectively, were also determined. For antibacterial activity, E. coli DH5a and P. aeruginosa PA14 were grown overnight in Luria Bertani (LB) broth at 30° C. The cells were washed with PBS and counted. Then, 300 μL from 2×10^8 cells/mL was spreaded onto LB agar plate using a hockey stick glass spreader. The plate was dried, and wells were punched out using a cut tip. Fifty microliters of different drug concentration was added to the well. The plate was then incubated at 30° C. for 24 hours.

A549 = A549 toxicity; format: cell-based
C. neoformans [2] = test: In vitro killing assay (killing curve, Kapp, 48H killing); format: cell-based, Cryptococcus neoformans; conditions: for Kill characteristics: FIG. 1A / FIG. 1B; for Kapp*: Kapp = K0 − Ki (C − Ci), killing curve versus MIC
Procedure: From an overnight culture, C. neoformans cells were washed in PBS, resuspended in YNB buffered with HEPES at pH 7.4. Cells were counted and 2×10^4 cells were incubated with either 1, 2 or 4 μg/ml of compound in a final volume of 10 ml. Tubes were then incubated at 37° C. in the presence of 5% CO2 on a rotary shaker at 200 rpm. At the illustrated time points, aliquots were taken and diluted and 100 μL was plated onto yeast peptone dextrose (YPD) plates. YPD plates were incubated in a 30° C. incubator and, after 72 hours, colony forming units (CFU) were counted and recorded.

C. neoformans cells = test: In vitro killing activity (K100) assay; format: cell-based, Cryptococcus neoformans; conditions: minimum concentration that kills 100% of C. neoformans cells in 48 h; for MFC: Cryptococcus neoformans
Procedure: C. neoformans cells from a culture grown overnight were washed in PBS and resuspended in YNB buffered with HEPES at pH 7.4. The cells were counted, and 2×10^4 cells were incubated with different concentration of compounds in a final volume of 10 ml with a final concentration of 0.5% DMSO. The tubes were then incubated at 37° C. with 5% CO2 on a rotary shaker at 200 rpm. Aliquots were taken at time points and diluted, and […] were plated onto Yeast Extract-Peptone-Dextrose (YPD) plates. YPD plates were incubated in a 30° C. incubator and after 48 h, the numbers of CFU were counted and recorded.

C. neoformans [3] = test: In vitro susceptibility (MIC80) assay; format: cell-based; conditions: Cryptococcus neoformans; lowest concentration that inhibited 80% of growth; YNB pH 7.0, HEPES, 37° C., 5% CO2
Procedure: MICs was determined following the methods of the Clinical and Laboratory Standards Institutes (CLSI) with modifications. Yeast Nitrogen Base (YNB) medium (pH 7.0, 0.2% glucose) buffered with HEPES was used for MIC studies. […] The compound was serially diluted from 16 to 0.03 μg/ml, in a 96-well plate. The inoculum was prepared as described in the CLSI protocol M27A3 guidelines. The plates were incubated at 37° C. with 5% CO2 for 24 to 72 h and the optical density was measure at 450 nm. The MICs was determined as the lowest concentration of the compound that inhibited 80% of growth compared to the control.

Row | SMILES | HepG2 (HepG2) | IC80 (C. neoformans [1]) | A549 (A549; Tables 1-3) | MFC (C. neoformans cells) | MIC80 (C. neoformans [3]) | also measured
1 | Cc1ccc(O)c(/C=N/NC(=O)c2cc(Br)ccc2O)c1 | 16 µg/mL | 0.25 µg/mL (≈ 0.716 µM) | 16 µg/mL | – | – | –
2 | Cc1ccc(O)c(/C=N/NC(=O)c2ccc(Br)cc2Br)c1 | 16 µg/mL | 1 µg/mL (≈ 2.43 µM) | 32 µg/mL | – | – | –
3 | Cc1ccc(O)c(/C=N/NC(=O)c2cc(Br)ccc2Br)c1 | 32 µg/mL | 1 µg/mL (≈ 2.43 µM) | 32 µg/mL | – | – | –
4 | O=C(N/N=C/c1cc(Cl)ccc1O)c1ccc(Br)cc1Br | 64 µg/mL | 0.25 µg/mL (≈ 0.578 µM) | 64 µg/mL | – | – | –
5 | O=C(N/N=C/c1cc(Cl)ccc1O)c1cccc(F)c1F | 32 µg/mL | 1 µg/mL (≈ 3.22 µM) | 72 µg/mL | – | – | –
6 | O=C(N/N=C/c1cc(Cl)ccc1O)c1cc(Br)ccc1Br | 32 µg/mL | 0.25 µg/mL (≈ 0.578 µM) | 59 µg/mL | – | – | –
7 | O=C(N/N=C/c1cc(Cl)cc(Cl)c1O)c1ccc(Br)cc1Br | 64 µg/mL | 1 µg/mL (≈ 2.14 µM) | >64 µg/mL | – | – | –
8 | O=C(N/N=C/c1cc(Cl)cc(Cl)c1O)c1cc(Br)ccc1Br | 32 µg/mL | 0.5 µg/mL (≈ 1.07 µM) | 32 µg/mL | – | – | –
9 | O=C(N/N=C/c1c(O)ccc2ccccc12)c1ccc(Br)cc1Br | >32 µg/mL | 0.12 µg/mL (≈ 0.268 µM) | 16 µg/mL | – | – | –
10 | O=C(N/N=C/c1c(O)ccc2ccccc12)c1cc(Br)ccc1Br | 16 µg/mL | 0.25 µg/mL (≈ 0.558 µM) | 32 µg/mL | – | – | –
11 | O=C(N/N=C/c1ccc(Br)cc1O)c1cccc(Br)c1 | 9 µg/mL | 0.5 µg/mL (≈ 1.26 µM) | >32 µg/mL | – | – | –
12 | O=C(N/N=C/c1ccc(Br)cc1O)c1ccc(Br)cc1Br | >64 µg/mL | 0.06 µg/mL (≈ 0.126 µM) | >32 µg/mL | – | – | –
13 | O=C(N/N=C/c1ccc(Br)cc1O)c1cccc(F)c1F | 16 µg/mL | 0.5 µg/mL (≈ 1.41 µM) | 16 µg/mL | – | – | –
14 | O=C(N/N=C/c1ccc(Br)cc1O)c1ccc(Br)cc1 | 32 µg/mL | 0.06 µg/mL (≈ 0.151 µM) | 16 µg/mL | – | – | Killing assay 48H (μg/mL) (C. neoformans [2]): Fungistatic
15 | O=C(N/N=C/c1ccc(Br)cc1O)c1cc(Br)ccc1Br | 16 µg/mL | 0.12 µg/mL (≈ 0.252 µM) | 32 µg/mL | – | – | –
16 | O=C(N/N=C/c1cc(Br)ccc1O)c1ccc(Br)cc1Br | 59 µg/mL | 0.12 µg/mL (≈ 0.252 µM) | >32 µg/mL | – | – | –
17 | O=C(N/N=C/c1cc(Br)ccc1O)c1cc(Br)ccc1Br | 32 µg/mL | 0.25 µg/mL (≈ 0.524 µM) | 16 µg/mL | – | – | –
18 | Cc1ccccc1C(=O)N/N=C/c1cc(Br)ccc1O [Compound 1] | – | – | – | – | – | MIC (C. neoformans [1]): 1 µg/mL (≈ 3 µM); A549 (A549; Example 2 table): 32; Kill characteristics (C. neoformans [2]): killed C. neoformans in a concentration dependent manner; Kapp* (C. neoformans [2]): 0.024
19 | O=C(N/N=C/c1cc(Br)ccc1O)c1cccc(Br)c1 [Compound 2] | – | – | – | – | – | MIC (C. neoformans [1]): 0.25 µg/mL (≈ 0.628 µM); A549 (A549; Example 2 table): 64; Kill characteristics (C. neoformans [2]): killed C. neoformans in a time dependent manner; Kapp* (C. neoformans [2]): −0.142
20 | O=C(N/N=C/c1cc(Br)cc(Br)c1O)c1ccc(Br)cc1 [Compound 13] | – | – | – | – | – | MIC (C. neoformans [1]): 0.06 µg/mL (≈ 0.126 µM); A549 (A549; Example 2 table): >128; Kapp* (C. neoformans [2]): −0.428

Row | SMILES | HepG2 (HepG2) | IC80 (C. neoformans [1]) | A549 (A549; Tables 1-3) | MFC (C. neoformans cells) | MIC80 (C. neoformans [3]) | also measured
21 | O=C(N/N=C/c1cc(Br)ccc1O)c1cc(Br)cc(Br)c1O [Compound 17] | – | – | – | – | – | MIC (C. neoformans [1]): 0.5 µg/mL (≈ 1.01 µM); A549 (A549; Example 2 table): 16; Kapp* (C. neoformans [2]): 0.077
22 | O=C(N/N=C/c1cc(Br)cc(Br)c1O)c1ccc(CF)cc1 [Compound A44, 4-Fluromethyl-N′-(3,5-dibromo-2-hydroxybenzylidene)benzohydrazide] | – | – | – | 0.5 µg/mL (≈ 1.16 µM) | 0.5 µg/mL (≈ 1.16 µM) | –
23 | C#Cc1ccc(C(=O)N/N=C/c2cc(Br)cc(Br)c2O)cc1 [Compound A46, 4-Ethynyl-N′-(3,5-dibromo-2-hydroxybenzylidene)benzohydrazide] | – | – | – | – | 0.12 µg/mL (≈ 0.284 µM) | K100* (μg/mL) (C. neoformans cells): Fungistatic
24 | O=C(N/N=C/c1cc(Br)cc(Br)c1O)c1ncc(Br)cn1 [Compound H1, 5-Bromo-N′-(3,5-dibromo-2-hydroxybenzylidene)pyrimidine-2-carbohydrazide] | – | – | – | > 2 µg/mL | 0.25 µg/mL (≈ 0.522 µM) | –
25 | O=C(N/N=C/c1cc(Br)ccc1O)c1ccc(Br)s1 [Compound H2, 5-Bromo-N′-(5-bromo-2-hydroxybenzylidene)thiophene-2-carbohydrazide] | – | – | – | > 0.5 µg/mL | 0.12 µg/mL (≈ 0.297 µM) | –
26 | O=C(N/N=C/c1ccc(Br)cc1O)c1ccc(Br)s1 [Compound H3, 5-Bromo-N′-(4-bromo-2-hydroxybenzylidene)thiophene-2-carbohydrazide] | – | – | – | > 0.5 µg/mL | 0.12 µg/mL (≈ 0.297 µM) | –
27 | O=C(N/N=C/c1cc(Br)cc(Br)c1O)c1ccc(Br)s1 [Compound H4, 5-Bromo-N′-(3,5-dibromo-2-hydroxybenzylidene)thiophene-2-carbohydrazide] | – | – | – | > 0.25 µg/mL | 0.06 µg/mL (≈ 0.124 µM) | –
28 | O=C(N/N=C/c1c(O)ccc2ccccc12)c1ccc(Br)s1 [Compound H5, 5-Bromo-N′-((2-hydroxynaphthalen-1-yl)methylene)thiophene-2-carbohydrazide] | – | – | – | > 0.5 µg/mL | 0.12 µg/mL (≈ 0.32 µM) | –
29 | O=C(N/N=C/c1cc(Br)ccc1O)c1cc(Br)c(Br)o1 [Compound H7, 4,5-Dibromo-N′-(5-bromo-2-hydroxybenzylidene) furan-2-carbohydrazide] | – | – | – | > 1 µg/mL | 0.25 µg/mL (≈ 0.535 µM) | –
30 | O=C(NN=Cc1ccc(Br)cc1O)c1cc(Br)c(Br)o1 [Compound H8, 4,5-Dibromo-N′-(4-bromo-2-hydroxybenzylidene)furan-2-carbohydrazide] | – | – | – | > 0.25 µg/mL | 0.06 µg/mL (≈ 0.129 µM) | –
31 | O=C(N/N=C/c1cc(Br)cc(Br)c1O)c1cc(Br)c(Br)o1 [Compound H9, 4,5-Dibromo-N′-(3,5-dibromo-2-hydroxybenzylidene)furan-2-carbohydrazide] | – | – | – | > 0.5 µg/mL | 0.12 µg/mL (≈ 0.22 µM) | –
32 | O=C(N/N=C/c1c(O)ccc2ccccc12)c1cc(Br)c(Br)o1 [Compound H10, 4,5-Dibromo-N′-(2-hydroxynaphthalen-1-yl)methylenefuran-2-carbohydrazide] | – | – | – | > 0.5 µg/mL | 0.12 µg/mL (≈ 0.274 µM) | –
33 | O=C(N/N=C/c1cc(Br)ccc1O)c1cc(Br)co1 [Compound H11, 4-Bromo-N′-(5-bromo-2-hydroxybenzylidene)furan-2-carbohydrazide] | – | – | – | > 1 µg/mL | 0.25 µg/mL (≈ 0.644 µM) | –
34 | O=C(N/N=C/c1ccc(Br)cc1O)c1cc(Br)co1 [Compound H12, 4-Bromo-N′-(4-bromo-2-hydroxybenzylidene) furan-2-carbohydrazide] | – | – | – | > 2 µg/mL | 0.5 µg/mL (≈ 1.29 µM) | –
35 | O=C(N/N=C/c1cc(Br)cc(Br)c1O)c1cc(Br)co1 [Compound H13, 4-bromo-N′-(3,5-dibromo-2-hydroxybenzylidene)furan-2-carbohydrazide] | – | – | – | > 0.25 µg/mL | 0.06 µg/mL (≈ 0.129 µM) | –
36 | O=C(N/N=C/c1ccc(Br)cc1O)c1ccoc1 [Compound H14, N′-(4-bromo-2-hydroxybenzylidene) furan-3-carbohydrazide] | – | – | – | > 1 µg/mL | 0.5 µg/mL (≈ 1.62 µM) | –
37 | O=C(N/N=C/c1cc(Br)cc(Br)c1O)C1CCOCC1 [Compound H15, N′-(3,5-dibromo-2-hydroxybenzylidene)tetrahydro-2H-pyran-4-carbohydrazide] | – | – | – | > 2 µg/mL | 0.5 µg/mL (≈ 1.23 µM) | –
38 | O=C(N/N=C/c1cc(Br)cc(Br)c1O)c1cnc2ccccc2c1 [drawing 62] | 32 µg/mL | 0.25 µg/mL (≈ 0.557 µM) | 32 µg/mL | – | – | Killing assay 48H (μg/mL) (C. neoformans [2]): Fungistatic
39 | Cc1ccc(O)c(/C=N/NC(=O)c2cc(Br)cc(Br)c2O)c1 [drawing 66] | 8 µg/mL | 0.25 µg/mL (≈ 0.584 µM) | 4 µg/mL | – | – | –
